Measured values as given in publication PMC12645437, “Orthogonal IMiD-Degron Pairs Induce Selective Protein Degradation in Cells” (ACS Chemical Biology, 2025).

How the values were obtained:
endogenous GSPT1 = molecular target: T1, endogenous GSPT1 (Homo sapiens, UniProt P15170); assay: Western blot for GSPT1 in WEIS-EGFP Jurkat cells; type: cell-based; settings: Jurkat transduced with EGFP-WEIS, 18 h
T1 construct: endogenous in cells; host or cells: Jurkat transduced with WEIS-EGFP

[1] = molecular target: T2, WEIS-EGFP degron in Jurkat cells (Homo sapiens, UniProt Q96SW2+Q9UKT9, N149E/Q147W/Q150I); assay: Time-course EGFP/mCherry flow cytometry degradation assay; type: cell-based
T2 construct: pLVX-Sprout-IKZF3 130-189aa Q147W N149E Q150I (WEIS); expressed in transfected cells
T2 sequence (Q9UKT9 130-189 Q147W/N149E/Q150I): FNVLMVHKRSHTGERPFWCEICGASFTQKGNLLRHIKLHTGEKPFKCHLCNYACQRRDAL
T2 sequence (Q96SW2 whole entry): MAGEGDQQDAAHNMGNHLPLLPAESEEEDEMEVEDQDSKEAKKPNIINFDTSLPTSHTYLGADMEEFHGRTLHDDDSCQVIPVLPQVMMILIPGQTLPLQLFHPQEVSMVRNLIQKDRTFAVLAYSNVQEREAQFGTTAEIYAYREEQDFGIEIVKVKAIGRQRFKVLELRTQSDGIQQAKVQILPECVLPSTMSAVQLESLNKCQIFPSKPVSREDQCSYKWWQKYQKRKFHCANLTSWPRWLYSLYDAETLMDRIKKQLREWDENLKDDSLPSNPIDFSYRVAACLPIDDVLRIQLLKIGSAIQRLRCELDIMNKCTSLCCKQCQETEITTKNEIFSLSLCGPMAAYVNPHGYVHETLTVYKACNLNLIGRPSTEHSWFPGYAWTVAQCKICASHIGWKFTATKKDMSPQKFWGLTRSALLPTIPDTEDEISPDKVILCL
T2 sequence (Q16531 whole entry partner): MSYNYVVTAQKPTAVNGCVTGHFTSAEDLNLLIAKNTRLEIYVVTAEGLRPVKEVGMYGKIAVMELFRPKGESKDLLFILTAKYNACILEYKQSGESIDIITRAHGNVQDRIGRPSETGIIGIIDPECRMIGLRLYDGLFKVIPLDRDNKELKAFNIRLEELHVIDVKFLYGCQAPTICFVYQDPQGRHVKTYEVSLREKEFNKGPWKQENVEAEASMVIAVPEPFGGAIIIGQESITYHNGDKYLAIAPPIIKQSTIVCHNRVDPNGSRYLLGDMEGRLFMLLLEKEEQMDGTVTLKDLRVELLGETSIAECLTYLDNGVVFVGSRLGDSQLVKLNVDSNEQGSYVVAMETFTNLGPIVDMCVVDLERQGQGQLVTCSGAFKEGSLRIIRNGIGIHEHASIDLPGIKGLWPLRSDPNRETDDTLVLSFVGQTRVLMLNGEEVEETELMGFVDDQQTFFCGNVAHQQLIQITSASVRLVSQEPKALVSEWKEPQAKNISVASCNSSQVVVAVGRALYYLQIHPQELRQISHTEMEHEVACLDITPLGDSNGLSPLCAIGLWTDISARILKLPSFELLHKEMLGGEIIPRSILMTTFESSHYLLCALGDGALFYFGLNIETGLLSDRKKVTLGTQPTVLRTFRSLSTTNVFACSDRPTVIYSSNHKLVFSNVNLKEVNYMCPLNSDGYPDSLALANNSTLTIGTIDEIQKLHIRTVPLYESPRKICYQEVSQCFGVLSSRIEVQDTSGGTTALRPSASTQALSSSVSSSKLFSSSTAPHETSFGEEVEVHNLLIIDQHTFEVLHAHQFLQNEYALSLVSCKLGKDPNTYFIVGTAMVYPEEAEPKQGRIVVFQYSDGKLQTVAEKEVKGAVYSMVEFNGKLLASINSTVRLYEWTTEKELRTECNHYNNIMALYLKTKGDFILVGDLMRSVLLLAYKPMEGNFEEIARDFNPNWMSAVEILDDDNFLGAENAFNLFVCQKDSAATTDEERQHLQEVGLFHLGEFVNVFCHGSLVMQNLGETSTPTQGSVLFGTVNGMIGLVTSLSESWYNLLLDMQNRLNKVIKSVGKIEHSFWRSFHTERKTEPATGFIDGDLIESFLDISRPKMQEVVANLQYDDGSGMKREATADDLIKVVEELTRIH
Description: 6 WEIS degron and compound 23 selectivity. Jurkat, ESC, and MM.1S cells were treated for 16 h with the corresponding compound or DMSO control, and the protein abundance was analyzed using multiplexed TMTpro quantification mass spectrometry. […] (A) Jurkat cells were treated with compound 23. (B). Jurkat cells treated with pomalidomide. (C) ESCs were treated with compound 23. (D) ESCs were treated with pomalidomide. (E) MM.1S cells treated with compound 23. […] Values shown are the mean of three biological replicates. WEIS degron and compound 23 kinetic degradation profile. (G) Jurkat cells were transduced with the WEIS-EGFP degron, then incubated with a concentration range of compound 23 (1 pM – 10 μM) for 1–24 h [as shown] and analyzed using flow cytometry. The DMSO-normalized ratiometric values of EGFP/mCherry are shown. (H). The half-maximal (DC50) values from the assay in […] are shown. Mean and SD values are plotted from three biological replicates. […] (J) Jurkat cells were lentivirally transduced with TRIM28 with either N-terminal or C-terminal WEIS degron tag (or untagged control) and HiBit peptide tag, then incubated with a concentration curve of compound 23 (100 pM – 10 μM) for 24 h and analyzed using a HiBit luminescence assay. […] HEK293T cells were lentivirally transduced with one of three POI fusion constructs–NanoLuc, CDK9, or HPRT1–with an N-terminal HA tag and a C-terminal WEIS degron, then incubated with a concentration range of compound 23 (1 nM – 10 μM) for 18 h and analyzed using HA antibody immunoblotting. […] HEK293T cells were lentivirally transduced with NanoLuc with an N-terminal HA tag and a C-terminal WEIS degron, then incubated with a concentration curve of compound 23 (1 nM – 10 μM) for either 6 or 18 h, and analyzed using a NanoGlo luminescence assay. […]
We performed a time-course experiment in which Jurkat cells transduced with the WEIS-EGFP degron were treated with compound 23 at a range of concentrations (1 pM–10 μM) at a selection of time points, and the ratiometric degradation values of EGFP/mCherry were assessed using flow cytometry, as above. […]

HA-CDK9-WEIS = molecular target: T3, HA-CDK9-WEIS (Homo sapiens, UniProt Q96SW2+Q9UKT9, N149E/Q147W/Q150I); assay: HA antibody immunoblotting in HEK293T cells; type: cell-based; settings: 18 h, Western blot
T3 construct: IKZF3 130aa-142aa 170-189aa fused to EGFP; CDK9 (protein of interest, fusion partner N-terminal of the degron); expressed in transfected cells; host or cells: HEK293T, lentivirally transduced (Cilantro2-derived plasmid, Addgene #74450, EGFP replaced by HA-POI-WEIS)
T3 sequence (Q9UKT9 130-189 Q147W/N149E/Q150I): as the sequence (Q9UKT9 130-189 Q147W/N149E/Q150I) above
T3 sequence (Q96SW2 whole entry, the tested form may be a part): as the sequence (Q96SW2 whole entry) above

HA-HPRT1-WEIS = molecular target: T4, HA-HPRT1-WEIS (Homo sapiens, UniProt Q96SW2+Q9UKT9, N149E/Q147W/Q150I); assay: HA antibody immunoblotting in HEK293T cells; type: cell-based; settings: 18 h, Western blot
T4 construct: IKZF3 130aa-142aa 170-189aa fused to EGFP; HPRT1 (protein of interest, fusion partner N-terminal of the degron); expressed in transfected cells; host or cells: HEK293T, lentivirally transduced (Cilantro2-derived plasmid, Addgene #74450, EGFP replaced by HA-POI-WEIS)
T4 sequence (Q9UKT9 130-189 Q147W/N149E/Q150I): as the sequence (Q9UKT9 130-189 Q147W/N149E/Q150I) above
T4 sequence (Q96SW2 whole entry, the tested form may be a part): as the sequence (Q96SW2 whole entry) above

[2] = system: embryonic stem cells (ESCs); assay: TMTpro quantitative proteomics, 16 h; settings: 10 μM
Description: Quantitative proteomics screens were carried out in untransduced Jurkat cells, embryonic stem cells (ESCs), and the multiple myeloma cell line, MM.1S. We used Jurkat cells, as our work up to this point had employed this cell line, and we selected ESCs and MM.1S cells as they express known CRBN neosubstrates, including IKZF1, IKZF3, RAB28, RNF166, SALL4, ZFP91, and ZNF827.
Proteomics - cell lysis and protein digestion
The viability of Jurkat cells was tested after 16-h treatment with corresponding chemicals
viable cells in each condition. Next, ~10^7 cells per condition were collected by centrifugation (1000 rpm), washed twice with ice-cold PBS, and lysed in RIPA buffer [50 mM HEPES pH 7.4, 150 mM NaCl, 1% sodium deoxycholate, 1% NP-40, 0.1% SDS, 10 mM sodium pyrophosphate, 10 mM β-glycerophosphate, 2.5 mM MgCl2, 200 µM TCEP, phosphatase and protease inhibitor cocktail (in-house)], to produce whole cell extracts. Whole-cell extracts were sonicated, and protein concentrations were determined using the Bradford assay. Protein extracts (100 µg) were subjected to disulfide bond reduction with 5 mM TCEP (10 min) and alkylation with 25 mM chloroacetamide (20 min). Methanol–chloroform precipitation was performed prior to protease digestion. […]

T1 sequence (P15170 whole entry): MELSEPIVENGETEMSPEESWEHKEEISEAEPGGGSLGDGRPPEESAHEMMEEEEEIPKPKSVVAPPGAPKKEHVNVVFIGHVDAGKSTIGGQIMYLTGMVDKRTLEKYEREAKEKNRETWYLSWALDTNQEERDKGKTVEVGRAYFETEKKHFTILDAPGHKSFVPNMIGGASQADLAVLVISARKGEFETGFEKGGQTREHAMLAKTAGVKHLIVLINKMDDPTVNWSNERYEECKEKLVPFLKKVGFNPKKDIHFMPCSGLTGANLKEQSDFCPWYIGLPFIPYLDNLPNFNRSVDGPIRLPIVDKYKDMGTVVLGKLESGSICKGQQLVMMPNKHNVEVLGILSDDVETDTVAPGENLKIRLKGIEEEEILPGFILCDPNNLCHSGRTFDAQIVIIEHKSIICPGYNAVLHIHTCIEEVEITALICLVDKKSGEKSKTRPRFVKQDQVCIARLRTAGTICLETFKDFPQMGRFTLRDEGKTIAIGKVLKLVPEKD

CN1CCN(c2ccc3c(c2)C(=O)N(C2CCC(=O)NC2=O)C3=O)CC1 (stereo not drawn) [Compound 23]
degradation of endogenous GSPT1 (Western blot) (endogenous GSPT1): showed no degradation | DC50 ([1]; time point 1 h): 10.3 nM | DC50 ([1]; time point 6 h): 2.3 nM | DC50 ([1]; time point 24 h): 18.3 nM | D max (HA-CDK9-WEIS): 70% | DC50 (HA-CDK9-WEIS): 299 nM | D max (HA-HPRT1-WEIS): 49% | DC50 (HA-HPRT1-WEIS): 67.1 nM | proteins degraded (quantitative proteomics) [2]: did not induce any protein degradation
